The subject of assay [1] is isolated PBMCs (non-activated). Nature of the assay: Activating effect on isolated non-activated PBMCs (CellTrace CFSE proliferation, flow cytometry). Format: cell-based, human. The settings on record: for Median Fluorescence Day 7 Average / Median Fluorescence Day 2 Average: CellTrace CFSE; for Median Fluorescence Day 2 Average: no activation stimulus. From the text:
(§1) Upon recognition of a foreign substance (foreign peptide presented on MHC) by the T cell receptor (TCR) and stimulation of the co-receptor CD28 the T cells start to proliferate. Thus, proliferation is a clear indication of T cell activation. Another classic activation marker for T cells is CD25, the high affinity receptor for the interleukin IL-2. This protein is not expressed by resting T cells and transcription is induced by TCR signaling. Thus, the presence of CD25 on the surface of T cells is a clear indicator of T cell activation. On the contrary, T cell exhaustion correlates with the signaling-induced expression of PD-1 on the surface of the T cells. To test the impact of substances on T cell activation, proliferation as well as CD25 and PD-1 upregulation, are used as readouts. Primary human Peripheral blood mononuclear cells (PBMCs) isolated from the blood of healthy donors (including primary T-cells) were used. PBMC cells represent a heterogenic population with 45-80% T cells, 5-20% B cells, 10-25% monocytes and 5-20% NK cells.
(§2) CellTrace™ stock solution was prepared according to the manual; addition of 15 μL DMSO to the CellTrace™ reagent and mixed well. Cell suspension was adjusted to 10^6 cells/mL in RPMI without FBS before addition of 1 μL CellTrace™ stock solution to each mL of cell suspension. After 20 minutes incubation (protected from light) of the cells at room temperature, five times the volume of culture medium was added and then again incubated for 5 min at room temperature. Afterwards the cells were centrifuged (300×g for 5 min) and the pellet resuspended in fresh culture medium. As last step the cells were incubated at 37° C. with 5% CO2 for 1-2 hours before the set-up of the experiment.
(§3) Following CFSE labelling and recovering at 37° C. with 5% CO2, cells were mixed with the extract as follows: 20 μL of extract were placed in a 96-well u-bottom culture plate as triplicates, then 180 μL cell suspension was added on top and mixed. Final concentration of the cells was 5*10^4 cells/well (=2.5*10^5 cells/mL).
(§4) Sample format: 96 well with 200 μL/well and 10,000 events measured per sample. FACS (fluorescence activated cell sorting) gating was performed via SSC (sideward scatter) versus FSC (forward scatter) density blot. A gate has been applied to identify viable cells. Percentage of viable cells was determined for all samples of a 96-well plate.
(§5) CellTrace™ CFSE median fluorescence (488 nm excitation and a 530/30 nm bandpass emission filter): From viable cell population single cells were determined and viable, single cells within the gate defined in a histogram to evaluate the level of fluorescence intensity of cells labelled with CellTrace™ CFSE. Cell proliferation was followed for 7 days. With increasing level of proliferation median fluorescence decreases, shown as shift of peak from right to left within the flow cytometer; non-labeled cells shown on the far-left side. Median fluorescence was determined as read-out. Earliest observable influence on proliferation and activation was expected after 3 days of incubation with the test compounds.
All cells (40*10^6) of one vial of frozen PBMC's (non-activated) were used for CFSE staining and cultured with extracts as follows: Day 0-3 in RPMI 1640 with 10% FBS, 1% HEPS (10 mM); day 3-7 in RPMI 1640 with 10% FBS, 1% HEPS (10 mM) and 100 U/mL IL-2.
(§6) Water, DMSO or DMF were used as negative control; UCHT1 (anti-CD3) antibody as positive control. The samples plate set-up was used as follows:
(§7) Half medium change with fresh extracts of final concentration was done every day.
To evaluate, if the chosen test compounds could have an activating effect on isolated PBMCs (Peripheral Blood Mononuclear Cells) and induce them to proliferate, PBMCs were incubated together with the test compounds in different concentrations. […]

The subject of the next assay is activated PBMCs. The assay is described as follows: Influence on proliferation of activated PBMCs (anti-CD3/anti-CD28, IL-2; CellTrace CFSE). Conditions: for Median Fluorescence Day 2 Average / Median Fluorescence Day 3 Average: CellTrace CFSE, activated PBMCs, 100 U/ml IL-2; for proliferation of activated PBMCs on day 3 (in words): versus water, maltodextrin or solvent control. Type of assay: cell-based, human.
Description: as §1, §2, §3, §4, §5
PBMCs isolated from blood were activated for 2 days on an activating surface with anti-CD3 (UCHT1) and anti-CD28. Activated PBMCs were then induced to proliferate by adding 1000 U/ml IL-2. Therefore, the cells were transferred to a new dish without activating antibodies and 2 days later the activated cells were used to set up the experiment. 40*10^6 cells were used for CFSE staining and cultured with extracts in RPMI 1640 with 10% FBS, 1% HEPS (10 mM), 0.1% β-mecaptoethanol (50 μM), 0.5% Pen/Strep and 100 U/ml IL-2.
as §6, §7
In the next experiment the effect of the test compounds on the proliferation of activated PBMCs was evaluated. […]

The test system of assay [2] is Jurkat cells (T cell leukemia). Nature of the assay: Cell viability (Cell Titer Glo, ATP luminescence). Type of assay: cell-based. Conditions: increasing concentrations; FIG. 8A, FIG. 9. The procedure: Similar cell viability assays were performed with additional cell lines (HeLa, Jurkat, Mt4 and THP-1) and using the Cell Titer Glo Assay. In order to further evaluate the effect of Healthberry® 865 on T cell populations and specifically the CD4+ populations, additional cell viability analysis was performed. On the basis that Healthberry® 865 has an influence on the CD4+ cell populations and additionally on the activation status of T cells, specifically T cell leukemia/lymphoma cell lines as Jurkat (T cell leukemia) and Mt4 (HTLV-I positive; human T-cell lymphotropic virus type I retrovirus causes adult T-cell leukemia-lymphoma) cells were chosen as in vitro models. Furthermore, control cell lines were chosen, which are not CD4^+ such as HeLa cells (epithelial cervix carcinoma) or which represent another type of leukemia such as THP-1 (acute monocytic leukemia). […] Cell viability tests were performed with the T cell leukemia cell lines Jurkat (FIG. 8A) and Mt4 (FIG. 8B) as well as with control cell lines such as the CD4 negative cervix carcinoma cell line HeLa (FIG. 8C) and the monocytic leukemia cell line THP 1 (FIG. 8D). Cell viability was evaluated based on ATP amount and via luminescence measurement. Samples were tested in triplicates.

Assay [3] has as its system CD4+ T cells in activated PBMCs. Nature of the assay: Analysis of T cell populations via flow cytometry, CD4+. Type of assay: cell-based, human. The settings on record: FIG. 7. The procedure:
(§8) Sample preparation and plate set-up was used as described before in the T cell activation assay. Primary PBMCs were seeded on activating surface (anti-CD3, anti-CD28) with medium containing 1000 U/ml IL-2 for 2 days. The activated PBMCs were then cultured with the prepared sample concentrations in medium containing 100 U/ml IL-2 every day from day 3 on after isolation. Half medium change with fresh samples and flow cytometry measurement was performed every day. All cells for flow cytometry were labelled with an antibody mixture containing Annexin V_Alexa594, anti-CD4_APC and anti-CD8_PE for CD-marker as well as live-dead staining.
(§9) PBMS were activated by using an activating surface and the addition of Interleukin-2 to the cell culture media. The activated PBMCs, which contain T-cells as the most prominent cell type, were treated with the berry extracts or the anthocyanins from day 3 on after isolation. To evaluate the different T cell population flow cytometry analysis were performed with anti-CD4 and anti-CD8 antibodies in combination with Annexin V staining as live-dead-staining.

In assay [4] the test system is CD8+ T cells in activated PBMCs. The assay is described as follows: Analysis of T cell populations via flow cytometry, CD8+. Type of assay: cell-based, human. The settings on record: FIG. 6. How it is done:
as §8, §9

Consider `C[C@@H]1O[C@@H](OC[C@H]2O[C@@H](Oc3cc4c(O)cc(O)cc4[o+]c3-c3ccc(O)c(O)c3)[C@H](O)[C@@H](O)[C@@H]2O)[C@H](O)[C@H](O)[C@H]1O` [C3R, cyanidin 3-rutinoside], for which the “Median Fluorescence Day 7 Average” value is reported as 21030 in assay [1] (15 μg/mL, IL-2 from day 3); 21539 in assay [1] (30 μg/mL, IL-2 from day 3); 22855 in assay [1] (75 μg/mL, IL-2 from day 3). For the same compound, the “Median Fluorescence Day 2 Average” value in assay [1] (15 μg/mL) is given as 33603; in assay [1] (30 μg/mL), 33737; in assay [1] (75 μg/mL) it was 34486; in the assay on activated PBMCs (15 μg/mL), 14630; in the assay with activated PBMCs (30 μg/mL), 15317; with activated PBMCs (75 μg/mL) it was 17032. The entries for the “Median Fluorescence Day 3 Average” value in the assay with activated PBMCs (15 μg/mL), in the assay on activated PBMCs (30 μg/mL) and with activated PBMCs (75 μg/mL) were 6153, 7228 and 11086, respectively. For the same compound, in the assay with activated PBMCs, the “proliferation of activated PBMCs on day 3 (in words)” value (“proliferation of activated PBMCs” below) was “dose-dependent and significant decrease of proliferation”.

Take `OC[C@H]1O[C@@H](Oc2cc3c(O)cc(O)cc3[o+]c2-c2cc(O)c(O)c(O)c2)[C@H](O)[C@@H](O)[C@@H]1O` [D3G, Delphinidin 3-glucoside]: in assay [2], the “cell viability (ATP amount, luminescence)” value is listed as “specific reduction”.

Regarding `CC1=C(/C=C/C(C)=C/C=C/C(C)=C/C=C/C=C(C)/C=C/C=C(C)/C=C/C2=C(C)C(=O)[C@@H](O)CC2(C)C)C(C)(C)C[C@H](O)C1=O` [Astaxanthin, reference compound], the “Median Fluorescence Day 7 Average” value in assay [1] (2 μg/mL, IL-2 from day 3) is listed as 20201; in assay [1] (4 μg/mL, IL-2 from day 3) it was 19444; in assay [1] (10 μg/mL, IL-2 from day 3), 16442. In addition, the “Median Fluorescence Day 2 Average” value in assay [1] (2 μg/mL) came to 33336; in assay [1] (4 μg/mL), 32336; in assay [1] (10 μg/mL) it was 36178; in the assay with activated PBMCs (2 μg/mL), 14190; in the assay on activated PBMCs (4 μg/mL) it was 15365; with activated PBMCs (10 μg/mL) it was 19750. The “Median Fluorescence Day 3 Average” value in the assay on activated PBMCs (2 μg/mL) is recorded as 6502; in the assay with activated PBMCs (4 μg/mL) it was 10055; in the assay with activated PBMCs (10 μg/mL) it was 15342. For the same compound, the “proliferation of activated PBMCs” value in the assay on activated PBMCs is recorded as “slower proliferation”.

Turning to `C[C@@H]1O[C@@H](OC[C@H]2O[C@@H](Oc3cc4c(O)cc(O)cc4[o+]c3-c3cc(O)c(O)c(O)c3)[C@H](O)[C@@H](O)[C@@H]2O)[C@H](O)[C@H](O)[C@H]1O` [D3R, delphinidin 3-rutinoside], the “Median Fluorescence Day 7 Average” value in assay [1] (15 μg/mL, IL-2 from day 3) is given as 20821; in assay [1] (30 μg/mL, IL-2 from day 3), 25171; in assay [1] (75 μg/mL, IL-2 from day 3), 44248. Moreover, the “Median Fluorescence Day 2 Average” value was 34772 in assay [1] (15 μg/mL); 34646 in assay [1] (30 μg/mL); 37453 in assay [1] (75 μg/mL); 14407 in the assay with activated PBMCs (15 μg/mL); 15685 with activated PBMCs (30 μg/mL); 19716 with activated PBMCs (75 μg/mL). In addition, the “activation / proliferation of non-activated PBMCs (in words)” value in assay [1] (2 days up to 7 days incubation, IL-2 from day 3) is “slight decrease of proliferation”. Moreover, in assay [3], the “change of CD4+ T cells in comparison to controls” value is recorded as “most significant effects”. Further, the “Median Fluorescence Day 3 Average” value in the assay on activated PBMCs (15 μg/mL) is recorded as 6602; in the assay on activated PBMCs (30 μg/mL), 8150; in the assay on activated PBMCs (75 μg/mL), 13927. Also, the “proliferation of activated PBMCs” value with activated PBMCs was “dose-dependent and significant decrease of proliferation”. The “change of CD8+ T cells in comparison to controls” value in assay [4] is recorded as “most significant effects”.

For the origin of these results see patent US20220184162A1, “PREPARATIONS CONTAINING BERRY EXTRACTS FOR USE IN TREATING CANCER” (Evonik Operations GmbH, priority 2019, published 2022).
